Data: US20240175069A1, “BIOSYSTEM FOR PESTICIDE DETECTION” (priority 2022, published 2024)

How the values were obtained:
CYP2B11 [1] = target: T1, CYP2B11 (Canis lupus familiaris, UniProt P24460); assay: Pesticides screening using CYP2B11 inhibition assay (BOMCC fluorescence, Example 4); conditions: 400 μg/L pesticide; 5 pmol/mL CYP2B11; 3 μM BOMCC
T1 sequence (P24460 1-494): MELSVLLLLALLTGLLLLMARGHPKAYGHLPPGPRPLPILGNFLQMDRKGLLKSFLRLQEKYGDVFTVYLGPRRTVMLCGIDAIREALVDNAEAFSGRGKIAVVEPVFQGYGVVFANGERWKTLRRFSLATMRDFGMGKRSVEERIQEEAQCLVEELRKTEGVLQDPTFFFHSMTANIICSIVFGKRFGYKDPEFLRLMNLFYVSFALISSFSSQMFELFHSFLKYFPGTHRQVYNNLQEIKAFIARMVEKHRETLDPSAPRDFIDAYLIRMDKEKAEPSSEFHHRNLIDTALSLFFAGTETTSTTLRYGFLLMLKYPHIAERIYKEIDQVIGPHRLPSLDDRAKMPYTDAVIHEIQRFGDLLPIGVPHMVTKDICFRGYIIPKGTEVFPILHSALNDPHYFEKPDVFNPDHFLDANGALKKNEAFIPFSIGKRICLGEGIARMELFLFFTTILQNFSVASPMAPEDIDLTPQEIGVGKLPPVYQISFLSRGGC
Description: This assay was performed in a 96-well plate by adding 50 μL of chemical standard of pesticides in duplicate, previously prepared in assay buffer with 5% acetonitrile. Enzyme mixture consisted of 5 pmol/mL CYP2B11 (Cypex Limited) in the assay buffer: 75 mM potassium phosphate supplemented with 5 mM MgCl2, pH=8.0, containing 333 mM Glucose-6-phosphate and 30 U/mL Glucose-6-phosphate dehydrogenase. After preparation, 50 μL of enzyme mixture were added to each plate and incubated for 10 minutes at 37° C. After incubation, 10 μL of a substrate mixture containing 30 μM NADP^+ and 3 μM BOMCC in the phosphate buffer was added to the wells. The plate was incubated for 60 minutes at 37° C., and the fluorescence was monitored using 410/460 nm as excitation and emission wavelengths, respectively. A blank sample containing buffer solution was measured in same conditions and used to calculate the inhibition of the enzyme activity that was associated with the presence of pesticides concentration.

CYP2B10 [2] = target: T2, CYP2B10 (Mus musculus, UniProt P12791); assay: Pesticides screening using CYP2B10 inhibition assay (MOBFC fluorescence, Example 1); assay type: biochemical; design: purchased Cypex Limited; bacterial membranes, E. coli by own knowledge; conditions: 15 pmol/mL CYP2B10, 10 μM MOBFC, 10% acetonitrile standard; for I (%) at 200 μg/L: 200 μg/L pesticide; for I (%) at 400 μg/L: 400 μg/L pesticide
T2 sequence (P12791 1-491 isoform P12791-2 L55F/V178I/R251K/K253R/N280H/A281T/V298A/H308R/T321A/S349T/L376M/Q412H/S444N): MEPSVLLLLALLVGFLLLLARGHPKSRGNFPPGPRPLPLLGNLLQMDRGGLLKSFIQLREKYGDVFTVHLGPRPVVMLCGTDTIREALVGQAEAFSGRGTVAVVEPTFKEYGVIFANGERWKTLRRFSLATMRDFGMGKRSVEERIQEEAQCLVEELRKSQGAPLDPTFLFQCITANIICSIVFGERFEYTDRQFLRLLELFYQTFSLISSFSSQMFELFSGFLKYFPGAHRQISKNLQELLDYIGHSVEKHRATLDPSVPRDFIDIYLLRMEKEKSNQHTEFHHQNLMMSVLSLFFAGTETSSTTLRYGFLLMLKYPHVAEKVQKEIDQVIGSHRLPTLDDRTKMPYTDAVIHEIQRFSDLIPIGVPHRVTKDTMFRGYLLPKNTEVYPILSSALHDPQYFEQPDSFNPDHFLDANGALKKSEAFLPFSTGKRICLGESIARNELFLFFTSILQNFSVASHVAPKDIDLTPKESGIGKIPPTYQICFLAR
Description: An inhibition assay was performed using the enzyme CYP2B10 by contacting it to 200 μg/L and 400 μg/L of chlorpyrifos-ethyl, chlorpyrifos-methyl, prochloraz, diazinon and dicofol.

CYP2B10 [3] = target: T2, CYP2B10; assay: CYP2B10 assay on extracts of spiked mushrooms, validation (Example 7); conditions: mushroom spiked at 0.01 mg/kg, extracted; 15 pmol/mL CYP2B10; 10 μM MOBFC; triplicates over seven days
Description: The bioassay was performed in 500 μL tubes and in triplicate. 50 μL of extract was added to the tubes. Enzyme mixture was prepared following the protocols provided by the manufacturer (Cypex Limited) and consisted of 15 pmol/ml of CYP2B10 Bactosomes in the assay buffer: 75 mM potassium phosphate supplemented with 5 mM MgCl2, pH=8.0, containing 333 mM Glucose-6-phosphate and 30 U/mL Glucose-6-phosphate dehydrogenase. After the preparation, 50 μL of enzyme mixture were added to each tube. After reach room temperature 10 μL of substrate mixture (10 μM MOBFC and 30 μM NADP^+ diluted in potassium phosphate buffer 50 mM) was added to each tube. The tubes were incubated 60 minutes at 37° C. and when time passed, fluorescence signal was measured with a fluorometric reader, 370 nm and 520 nm were the excitation and emission wavelengths, respectively. A blank sample, buffer solution, was measured at the same time and the reduction of the signal, inhibition of enzyme activity, was calculated and associated with the presence of pesticide molecules.
The validation was carried out during seven days, comparing the signal obtained for triplicate samples of blank and doped mushroom.

CYP2B10 [4] = target: T2, CYP2B10; assay: CYP2B10 inhibition assay with MOBFC/MOFC reporter substrate mixes (Example 3); assay type: biochemical; design: purchased Cypex Limited; bacterial membranes, E. coli by own knowledge; conditions: 400 μg/L dicofol
Description: The enzyme CYP2B10 was exposed to 400 μg/L of dicofol pesticide, and the inhibition percentage was registered when reporter substrate concentration and composition was changed.

Human CYP2B6 = target: T3, Human CYP2B6 (Homo sapiens, UniProt P20813); assay: Metrafenone inhibition assay on human CYP2B6 (Example 5); assay type: biochemical; conditions: 500 μg/L metrafenone; CYP2B6 2.5 pmol/mL; BOMCC 3 μM
T3 construct: purchased Thermofisher Scientific; host or cells: baculosomes (microsomes of baculovirus-infected insect cells, by own knowledge)
T3 sequence (P20813 1-491): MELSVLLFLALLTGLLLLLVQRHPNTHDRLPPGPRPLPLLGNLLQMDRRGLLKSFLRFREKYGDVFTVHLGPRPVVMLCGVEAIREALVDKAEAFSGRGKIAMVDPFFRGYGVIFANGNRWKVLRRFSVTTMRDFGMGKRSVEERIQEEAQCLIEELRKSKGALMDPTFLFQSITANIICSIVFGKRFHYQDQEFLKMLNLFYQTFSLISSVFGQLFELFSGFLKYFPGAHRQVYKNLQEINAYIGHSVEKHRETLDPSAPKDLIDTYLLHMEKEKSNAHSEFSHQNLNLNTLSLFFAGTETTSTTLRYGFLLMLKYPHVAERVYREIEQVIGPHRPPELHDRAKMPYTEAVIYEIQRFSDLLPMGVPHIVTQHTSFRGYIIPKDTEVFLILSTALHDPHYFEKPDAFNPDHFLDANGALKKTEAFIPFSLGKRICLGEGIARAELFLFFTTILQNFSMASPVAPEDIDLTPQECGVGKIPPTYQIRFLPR
Description: (§1) This assay was performed in a 96-well plate by adding 50 μL of 500 μg/L of metrafenone chemical standard to wells in duplicate, previously prepared in assay buffer with 5% acetonitrile. CYP2B11 enzyme mixture consisted of 5 pmol/mL Dog CYP2B11 bactosomes (Cypex Limited) in the assay buffer: 75 mM potassium phosphate supplemented with 5 mM MgCl2, pH=8.0, containing 333 mM Glucose-6-phosphate and 30 U/mL Glucose-6-phosphate dehydrogenase. CYP2B6 enzyme mixture consisted of 2.5 pmol/ml of Vivid® Human CYP2B6 baculosomes (Thermofisher Scientific) in the assay buffer: 75 mM potassium phosphate, pH=8.0, containing 333 mM Glucose-6-phosphate and 30 U/mL Glucose-6-phosphate dehydrogenase.
(§2) After preparation, 50 μL of each enzyme mixture were added to each plate and incubated for 10 minutes at 37° C. After incubation, 10 μL of a substrate mixture containing 30 μM NADP^+ and 3 μM BOMCC in the phosphate buffer was added to the wells. The plate was incubated for 60 minutes at 37° C., and the fluorescence was monitored using 410/460 nm as excitation and emission wavelengths, respectively. A blank sample containing buffer solution was measured in same conditions and used to calculate the inhibition percentage of the activity of the enzymes in presence of the pesticide metrafenone.

Dog CYP2B11 = target: T4, Dog CYP2B11 (Canis lupus familiaris, UniProt P24460); assay: Metrafenone inhibition assay on CYP2B11 (Example 5); assay type: biochemical; conditions: 500 μg/L metrafenone; CYP2B11 5 pmol/mL; BOMCC 3 μM
T4 construct: purchased Cypex Limited; host or cells: bactosomes (bacterial membranes; E. coli by own knowledge)
T4 sequence (P24460 1-494): T1 sequence (P24460 1-494)
Description: as §1, §2

CYP2B11 [5] = target: T1, CYP2B11; assay: Effect of dimethoate in CYP2B11 assay (BOMCC fluorescence, Example 2); assay type: biochemical; design: purchased Cypex Limited; conditions: dog, CYP2B11 enzyme (Cypex Limited), pH 8, probe BOMCC (3 μM in substrate mixture); 2 mg/L dimethoate; 10 pmol/mL CYP2B11; 3 μM BOMCC
From the text: Considering the inhibition percentage determined, it is possible to confirm that CYP2B11 enzyme is susceptible to be inhibited by dimethoate pesticide.

Q: With `Fc1ccc(Oc2ccnc3cc(Cl)cc(Cl)c23)cc1` [Quinoxyfen] as the compound, how does the “I(%)” value (CYP2B11 [1]) read?
A: Its value is 18.1%.

Q: With `CCOP(=S)(OCC)Oc1cc(C)nc(C(C)C)n1` [Diazinon] as the compound, how does the “I(%)” value (CYP2B11 [1]) read?
A: Its value is 84.1%.

Q: How did the “I(%)” value (CYP2B11 [1]) turn out when `CCCC(Cn1cncn1)c1ccc(Cl)cc1Cl` (stereo not drawn) [Penconazole] was run?
A: The value was 87.8%.

Q: With `COP(=S)(OC)Oc1nc(Cl)c(Cl)cc1Cl` [Chlorpyrifos-methyl] as the compound, how does the “I(%)” value (CYP2B11 [1]) read?
A: Its value is 96.0%.

Q: What about the “I (%) at 200 μg/L” value (CYP2B10 [2]) of the same compound?
A: Its value is 49.5%.

Q: What about the “I (%) at 400 μg/L” value (CYP2B10 [2]) of the same compound?
A: The value was 77.9%.

Q: What about the “Average I (%)” value (CYP2B10 [3]) of the same compound?
A: Its value is 46.8%.

Q: What does the source list for `OC(c1ccc(Cl)cc1)(c1ccc(Cl)cc1)C(Cl)(Cl)Cl` [Dicofol]?
A: I(%) (CYP2B11 [1]): 79.0%; I (%) at 200 μg/L (CYP2B10 [2]): 19.0%; I (%) at 400 μg/L (CYP2B10 [2]): 30.6%; I(%) (CYP2B10 [4]; MOBFC 0.0 μM, MOFC 10.0 μM): 72.9%; I(%) (CYP2B10 [4]; MOBFC 2.0 μM, MOFC 8.0 μM): 50.6%; I(%) (CYP2B10 [4]; MOBFC 3.3 μM, MOFC 6.6 μM): 37.4%; I(%) (CYP2B10 [4]; MOBFC 5.0 μM, MOFC 5.0 μM): 24.3%; I(%) (CYP2B10 [4]; MOBFC 10.0 μM, MOFC 0.0 μM): 16.8%

Q: `CC12CC1(C)C(=O)N(c1cc(Cl)cc(Cl)c1)C2=O` (stereo not drawn) [Procymidone] was tested. Which “I(%)” value (CYP2B11 [1]) did it give?
A: The value was 24.5%.

Q: With `N#Cc1c(Cl)c(Cl)c(Cl)c(C#N)c1Cl` [Chlorothalonil] as the compound, how does the “I(%)” value (CYP2B11 [1]) read?
A: The value was 62.3%.

Q: `CCCN(CCOc1c(Cl)cc(Cl)cc1Cl)C(=O)n1ccnc1` [Prochloraz] was tested. Which “I(%)” value (CYP2B11 [1]) did it give?
A: Its value is 94.6%.

Q: And the “I (%) at 200 μg/L” value (CYP2B10 [2])?
A: Its value is 60.3%.

Q: What about the “I (%) at 400 μg/L” value (CYP2B10 [2]) of the same compound?
A: Its value is 72.0%.

Q: What about the “Average I (%)” value (CYP2B10 [3]) of the same compound?
A: Its value is 54.2%.

Q: `COc1cc(C)c(C(=O)c2c(OC)ccc(Br)c2C)c(OC)c1OC` [metrafenone] was tested. Which “I(%)” value (Human CYP2B6) did it give?
A: The value was 0.0%.

Q: And the “I(%)” value (Dog CYP2B11)?
A: The value was 35.2%.

Q: How did the “I(%)” value (CYP2B11 [1]) turn out when `CCOP(=S)(OCC)Oc1nc(Cl)c(Cl)cc1Cl` [Chlorpyrifos-ethyl] was run?
A: The value was 94.2%.

Q: And the “I (%) at 200 μg/L” value (CYP2B10 [2])?
A: The value was 26.8%.

Q: What about the “I (%) at 400 μg/L” value (CYP2B10 [2]) of the same compound?
A: Its value is 46.8%.

Q: For `CC1(C)C(C=C(Cl)Cl)C1C(=O)OC(C#N)c1cccc(Oc2ccccc2)c1` (stereo not drawn) [Cypermethrin], which “I(%)” value (CYP2B11 [1]) is on record?
A: The value was 17.5%.

Q: Which “I(%)” value (CYP2B11 [1]) does the source give for `CC(C)NC(=O)N1CC(=O)N(c2cc(Cl)cc(Cl)c2)C1=O` [Iprodione] here?
A: The value was 15.9%.

Q: `Clc1ccc(C(c2ccc(Cl)cc2)C(Cl)(Cl)Cl)cc1` [DDT] was tested. Which “I(%)” value (CYP2B11 [1]) did it give?
A: Its value is 70.7%.

Q: With `CNC(=O)CSP(=S)(OC)OC` [dimethoate] as the compound, how does the inhibition at 60 min, 2 mg/L (CYP2B11 [5]) read?
A: The inhibition at 60 min, 2 mg/L was 56.8%.
